Results from ChEMBL document CHEMBL3877329, “Antiprotozoal glutathione derivatives with flagellar membrane binding activity against T. brucei rhodesiense” (Bioorg Med Chem, 2017).
Active and inactive are the calls of the source. The rule behind the calls is not given here.

How the values were obtained:
[1] = Selectivity index, ratio of ED50 for human KB cells to ED50 for Trypanosoma brucei rhodesiense STIB900 bloodstream trypomastigote forms; type: toxicity, cell-based; settings: read-out: Ratio ED50
[2] = system: Trypanosoma brucei rhodesiense; assay: Antitrypanosomal activity against Trypanosoma brucei rhodesiense STIB900 bloodstream trypomastigote forms measured on day 3 post treatment by alamar blue assay; type: functional; settings: STIB900, 72 h, read-out: ED50 (the source's name)
[3] = Cytotoxicity against human KB cells after 3 days by fluorometric assay; type: toxicity, cell-based; settings: read-out: ED50
Trypanosoma cruzi = assay: Antitrypanosomal activity against Trypanosoma cruzi MHOM/BR/OO/Y trypomastigotes infected in CD1 mouse peritoneal macrophages after 3 days; type: functional; settings: 72 h, read-out: ED50 (the source's name)
Leishmania donovani = assay: Antileishmanial activity against Leishmania donovani MHOM/ET/67/HU3 amastigotes infected in CD1 mouse peritoneal macrophages after 5 days; type: functional; settings: for EC50: MHOM/ET/67/HU3, 120 h, read-out: ED50 (the source's name)
[4] = Drug release from Trypanosoma brucei brucei S247 bloodstream forms cell membrane treated with N-benzyloxy carbonyl-S-(4-bromobenzyl)glutathione dimethyl ester at 50 uM after 120 mins in presence of 1 M NaCl by HPLC-UV method; type: ADME; settings: 2 h
[5] = Drug release from Trypanosoma brucei brucei S247 bloodstream forms cell membrane treated with N-benzyloxy carbonyl-S-(4-bromobenzyl)glutathione dimethyl ester at 50 uM after 120 mins in presence of 6 M urea by HPLC-UV method; type: ADME, tissue-based; settings: blood, 2 h
[6] = system: Trypanosoma brucei brucei; assay: Antitrypanosomal activity against Trypanosoma brucei brucei S247 bloodstream forms; type: functional; settings: read-out: ED50 (the source's name)
[7] = system: Trypanosoma brucei brucei; assay: Antitrypanosomal activity against Trypanosoma brucei brucei S247 bloodstream forms assessed as swelling of parasite head at 50 uM after 5 mins by optical microscopic method; type: functional
[8] = system: Trypanosoma brucei brucei; assay: Antitrypanosomal activity against Trypanosoma brucei brucei S247 bloodstream forms assessed as swirling motion of cell particles at 50 uM after 1 hr by optical microscopic method; type: functional
[9] = Drug uptake in Trypanosoma brucei brucei S247 bloodstream forms at 50 uM after 5 mins by HPLC-UV method; type: ADME
[10] = Drug release fromTrypanosoma brucei brucei S247 bloodstream forms cell membrane at 50 uM after 120 mins in presence of 1 M NaCl by HPLC-UV method; type: ADME; settings: trypanosoma brucei brucei, 2 h
[11] = system: Trypanosoma brucei brucei; assay: Antitrypanosomal activity against Trypanosoma brucei brucei S247 bloodstream forms assessed as immobility of parasite at 50 uM up to 1 min by optical microscopic method; type: functional
[12] = system: Trypanosoma brucei brucei; assay: Antitrypanosomal activity against Trypanosoma brucei brucei S247 bloodstream forms assessed as circular appearance at 50 uM after 30 to 40 mins by optical microscopic method; type: functional
[13] = Drug release from Trypanosoma brucei brucei S247 bloodstream forms cell membrane at 50 uM after 120 mins in presence of 6 M urea by HPLC-UV method; type: ADME, tissue-based; settings: blood, 2 h
Mus musculus = species on record: Mus musculus; assay: Cytotoxicity against CD1 mouse peritoneal macrophages assessed as induction of cell membrane lysis at 30 uM by optical microscopic method; type: toxicity; settings: peritoneal macrophage

EC50 [2] | EC50 (Trypanosoma cruzi) | EC50 (Leishmania donovani) | Compound | selectivity ratio [1] | CC50 at 72 h [3] | also measured
32600 nM | > 30 µM |  | CCCCCCCCCCCCCC(=O)N[C@@H](CCC(=O)N[C@@H](CSc1ccc([N+](=O)[O-])cc1[N+](=O)[O-])C(=O)NCC(=O)OCCCC)C(=O)OCCCC | > 9.2 | > 300 µM | 
500 nM | 4.5 µM | 10.1 µM | CCCCOC(=O)CNC(=O)[C@H](CSc1ccc([N+](=O)[O-])cc1[N+](=O)[O-])NC(=O)CC[C@H](NC(=O)OC12CC3CC(CC(C3)C1)C2)C(=O)OCCCC | > 600 | > 300 µM | 
220 nM | 16.5 µM | 9.9 µM | CCCCOC(=O)CNC(=O)[C@H](CSc1ccc([N+](=O)[O-])cc1[N+](=O)[O-])NC(=O)CC[C@H](NC(=O)OC(C)(C)C)C(=O)OCCCC | 320 | 70.4 µM | 
280 nM | > 30 µM |  | CCCCOC(=O)CNC(=O)[C@H](CSc1ccc([N+](=O)[O-])cc1[N+](=O)[O-])NC(=O)CC[C@H](NC(=O)/C=C/c1ccccc1)C(=O)OCCCC | 123 | 34.4 µM | 
1160 nM | > 30 µM | > 30 µM | CCCCOC(=O)CNC(=O)[C@H](CSc1ccc([N+](=O)[O-])cc1[N+](=O)[O-])NC(=O)CC[C@H](NC(=O)CC(C)C)C(=O)OCCCC | 51.4 | 59.6 µM | 
6520 nM | 37.8 µM |  | CCCCOC(=O)CNC(=O)[C@H](CSc1ccc([N+](=O)[O-])cc1[N+](=O)[O-])NC(=O)CC[C@H](NC(C)=O)C(=O)OCCCC | > 46 | > 300 µM | 
 |  |  | COC(=O)CNC(=O)[C@H](CSCc1ccc(Br)cc1)NC(=O)CC[C@H](NC(=O)OCc1ccccc1)C(=O)O |  |  | Drug uptake [4]: 24%; Drug uptake [5]: 8%
 |  |  | O=C(O)CNC(=O)[C@H](CSCc1ccc(Br)cc1)NC(=O)CC[C@H](NC(=O)OCc1ccccc1)C(=O)O |  |  | Drug uptake [5]: 12%
730 nM | 30.8 µM |  | CCCCOC(=O)CNC(=O)[C@H](CSc1ccc([N+](=O)[O-])cc1[N+](=O)[O-])NC(=O)CC[C@H](NC(=O)C(C)C)C(=O)OCCCC | > 411 | > 300 µM | 
1020 nM |  |  | CCCCOC(=O)CNC(=O)[C@H](CSc1ccc([N+](=O)[O-])cc1[N+](=O)[O-])NC(=O)CC[C@H](NC(=O)CCC(C)C)C(=O)OCCCC | 82.3 | 84 µM | 
420 nM |  | > 30 µM | CCCCOC(=O)CNC(=O)[C@H](CSc1ccc([N+](=O)[O-])cc1[N+](=O)[O-])NC(=O)CC[C@H](NC(=O)OCc1ccccc1)C(=O)OCCCC | 227 | 95.2 µM | 
 |  |  | Sodium stibogluconate |  |  | ED50 (Leishmania donovani): 33 µg/mL
300 nM | 35 µM |  | CCCCOC(=O)CNC(=O)[C@H](CSc1ccc([N+](=O)[O-])cc1[N+](=O)[O-])NC(=O)CC[C@H](NC(=O)CCc1c[nH]c2ccccc12)C(=O)OCCCC | 87 | 26 µM | 
 |  |  | COC(=O)CNC(=O)[C@H](CSCc1ccc(Br)cc1)NC(=O)CC[C@H](NC(=O)OCc1ccccc1)C(=O)OC |  |  | EC50 [6]: 30 µM; Activity [7]: Active; Activity [8]: Active; Drug uptake [9]: Active; Drug uptake [10]: 76%; Activity [11]: Active; Activity [12]: Active; Drug uptake [13]: 80%
2150 nM | 30.4 µM | > 30 µM | CCCCOC(=O)CNC(=O)[C@H](CSc1ccc([N+](=O)[O-])cc1[N+](=O)[O-])NC(=O)CC[C@H](NC(=O)OC)C(=O)OCCCC | > 139 | > 300 µM | 
720 nM |  |  | CCCCOC(=O)CNC(=O)[C@H](CSc1ccc([N+](=O)[O-])cc1[N+](=O)[O-])NC(=O)CC[C@H](Nc1ccc([N+](=O)[O-])cc1[N+](=O)[O-])C(=O)OCCCC | > 417 | > 300 µM | 
0.33 nM |  |  | N=C(N)c1ccc(OCCCCCOc2ccc(C(=N)N)cc2)cc1 |  |  | 
18800 nM |  |  | CCCCOC(=O)CNC(=O)[C@H](CSc1ccc([N+](=O)[O-])cc1[N+](=O)[O-])NC(=O)CC[C@H](Nc1nc(N)nc(Cl)n1)C(=O)OCCCC | > 15.9 | > 300 µM | 
1880 nM |  | 19.9 µM | CCCCOC(=O)CNC(=O)[C@H](CSc1ccc([N+](=O)[O-])cc1[N+](=O)[O-])NC(=O)CC[C@H](N)C(=O)OCCCC | 57.1 | 107 µM | Activity (Mus musculus): Toxic
600 nM | > 30 µM |  | CCCCOC(=O)CNC(=O)[C@H](CSc1ccc([N+](=O)[O-])cc1[N+](=O)[O-])NC(=O)CC[C@H](NC(=O)COc1ccccc1)C(=O)OCCCC | > 500 | > 300 µM | 
600 nM | 8.4 µM |  | CCCCOC(=O)CNC(=O)[C@H](CSc1ccc([N+](=O)[O-])cc1[N+](=O)[O-])NC(=O)CC[C@H](NC(=O)C(C)(C)C)C(=O)OCCCC | 139 | 83.4 µM | 
 | 4.4 µM |  | O=C(Cn1ccnc1[N+](=O)[O-])NCc1ccccc1 [BENZNIDAZOLE] |  |  | 
550 nM | 22.9 µM |  | CCCCOC(=O)CNC(=O)[C@H](CSc1ccc([N+](=O)[O-])cc1[N+](=O)[O-])NC(=O)CC[C@H](NC(=O)c1ccccc1)C(=O)OCCCC | > 545 | > 300 µM | 
4380 nM | 12 µM |  | CCCCOC(=O)CNC(=O)[C@H](CSc1ccc([N+](=O)[O-])cc1[N+](=O)[O-])NC(=O)CC[C@H](NC(=O)CC(C)(C)C)C(=O)OCCCC | 57.1 | 250 µM | 
2020 nM | > 30 µM | > 30 µM | CCCCOC(=O)CNC(=O)[C@H](CSc1ccc([N+](=O)[O-])cc1[N+](=O)[O-])NC(=O)CC[C@H](NC(=O)CCc1ccccc1)C(=O)OCCCC | > 148 | > 300 µM | 

Compound | EC50 [2] | EC50 (Trypanosoma cruzi) | EC50 (Leishmania donovani) | selectivity ratio [1] | CC50 at 72 h [3] | also measured
N[C@@H](CCC(=O)N[C@@H](CSc1ccc([N+](=O)[O-])cc1[N+](=O)[O-])C(=O)NCC(=O)O)C(=O)O | > 30000 nM | > 30 µM | > 30 µM |  |  | 
